Calls of active or inactive are those of the source. The calls are words filed in the database; no cut-off is given here.
How the values were obtained:
Hepatocyte [1] = assay: Inhibition of gluconeogenesis in Sprague-Dawley rat hepatocytes assessed as decrease in glucose output at 20 uM after 4 hrs by colorimetric assay relative to control; type: functional; conditions: values are per cent of control
Hepatocyte [2] = assay: Inhibition of gluconeogenesis in Sprague-Dawley rat hepatocytes assessed as decrease in glucose output at 10 uM after 4 hrs by colorimetric assay relative to control; type: functional; conditions: values are per cent of control
Hepatocyte [3] = assay: Inhibition of gluconeogenesis in Sprague-Dawley rat hepatocytes assessed as glucose output at 80 to 160 uM after 4 hrs by colorimetric assay; type: functional, cell-based
[4] = Inhibition of human recombinant FBPase-mediated fructose-6-phosphate formation by coupled spectrophotometric assay
Hepatocyte [5] = assay: Inhibition of gluconeogenesis in Sprague-Dawley rat hepatocytes assessed as decrease in glucose output at 40 uM after 4 hrs by colorimetric assay relative to control; type: functional; conditions: values are per cent of control
Hepatocyte [6] = assay: Inhibition of gluconeogenesis in Sprague-Dawley rat hepatocytes assessed as decrease in glucose output at 2 mM after 4 hrs by colorimetric assay relative to control; type: functional; conditions: values are per cent of control

With `Cc1ccc(-c2nnc(-c3cccc(NC(=O)CCCCCN4CCOCC4)c3)o2)cc1` the response, % of control at 20 µM (Hepatocyte [1]) was 83.6%, the response, % of control at 10 µM (Hepatocyte [2]) was 83.3% and the inhibition (Hepatocyte [3]) was “inactive”. The IC50 [4] was 2.54 µM and the response, % of control at 40 µM (Hepatocyte [5]) was 85.2%.
With `COc1ccc(CC(=O)Nc2cccc(-c3nnc(-c4ccc(C)cc4)o3)c2)cc1OC` the response, % of control at 20 µM (Hepatocyte [1]) was 93.5%, the response, % of control at 10 µM (Hepatocyte [2]) was 96.7% and the IC50 [4] was 4.51 µM. It also gave a response, % of control at 40 µM (Hepatocyte [5]) of 103%.
With `Cc1ccc(-c2nnc(-c3cccc(NC(=O)CCCCN4CCOCC4)c3)o2)cc1` the IC50 [4] was 5.01 µM.
With `Nc1ncnc2c1ncn2[C@@H]1O[C@H](COP(=O)(O)O)[C@@H](O)[C@H]1O` [ADENOSINE PHOSPHATE] the IC50 [4] was 1.3 µM.
`Cc1ccc(-c2nnc(-c3cccc(NC(=O)CCCN4CCOCC4)c3)o2)cc1` showed an IC50 [4] of 4.96 µM.
For `COc1ccc(CC(=O)Nc2cccc(-c3nnc(-c4cccc(Cl)c4)o3)c2)cc1OC`, the IC50 [4] was 15.5 µM.
For `CN(C)C(=N)NC(=N)N` [METFORMIN], the response, % of control at 2000 µM (Hepatocyte [6]) was 75%.

From ChEMBL document CHEMBL3286289, “Synthesis and structure-activity relationship of non-phosphorus-based fructose-1,6-bisphosphatase inhibitors: 2,5-Diphenyl-1,3,4-oxadiazoles” (Eur J Med Chem, 2014)
